Source: US20180185423A1, “SEAWEED EXTRACTS WITH ANTI-CANCER ACTIVITY” (OCEANS LTD., priority 2015, published 2018)
“And” between values parts separate entries of the source, which are not always exact repeats. Identical values can stand only once.

Key:
Assay in all cases: CIMA assay (colorimetric indicator of metabolic activity), 72 h exposure
A549 (lung carcinoma) = assay type: cell-based, human; details: A549, SDS 5% control; 0 = 100.0
Description: (§1) Stock solutions of the extracts were prepared in dimethylsulfoxide (DMSO) at 10 mg/mL and stored in 200 μl aliquots at −20° C. until analysis. This preparation ensured that the DMSO delivered to cells in culture never exceeded 1%.
(§2) Prepared extracts were assessed following chronic exposure conditions in which cells were seeded at 2×10^3 cells/well (96 wells plate) and incubated with test compounds for 72 h. Each compound was evaluated over a range of concentrations (0, 10, 25, 50 or 100 μg/ml). Cell proliferation was initially assessed using a standard colorimetric indicator of metabolic activity (CIMA) assay. In this assay, tetrazole reduction was evaluated as a measure of metabolic function that evaluates mitochondrial activity to determine the extent of cell proliferation within a culture. This assay is based on the reduction of yellow tetrazolium salt to purple formazan by mitochondrial reductases enzyme in viable cells, resulting in a color changed that confers a change in absorbance. […] From the results shown in Table 2 and FIGS. 4 and 5, the extracts were selected for additional fractionation and evaluated in the same manner.

PC3 = assay type: cell-based; details: PC3, SDS 5% control; 0 = 100.0
Description: as §1, §2

[1] = test system: CCD1079SK (fibroblast, noncancerous but proliferating); assay type: cell-based, human; details: SDS 5% control, 0 = 100.0, in % (unit assumed)
Description: as §1
(§3) Prepared extracts were assessed following chronic exposure conditions in which cells were seeded at 2×10^3 cells/well (96 wells plate) and incubated with test compounds for 72 h. Each compound was evaluated over a range of concentrations (0, 10, 25, 50 or 100 μg/ml). Cell proliferation was initially assessed using a standard colorimetric indicator of metabolic activity (CIMA) assay. In this assay, tetrazole reduction was evaluated as a measure of metabolic function that evaluates mitochondrial activity to determine the extent of cell proliferation within a culture. This assay is based on the reduction of yellow tetrazolium salt to purple formazan by mitochondrial reductases enzyme in viable cells, resulting in a color changed that confers a change in absorbance. Six human cell lines were selected for primary evaluation: U373 (glioblastoma-astrocytoma), A549 (lung carcinoma), THP-1 (acute monocytic leukemia), MCF7 (mammary gland adenocarcinoma), SKOV3 (ovarian adenocarcinoma), and CCD1079SK (fibroblast, noncancerous but proliferating). From the results shown in Table 2 and FIGS. 4 and 5, the extracts were selected for additional fractionation and evaluated in the same manner.
(§4) Lead crude extracts were fractionated into five fractions by C-18 SPE column separation using 15 ml each of 5% methanol (fraction 1), 25% methanol (fraction 2), 50% methanol (fraction 3), 100% methanol (fraction 4) and […] (fraction 5). Extracts were fractionated and the resulting fractions were evaluated using CIMA assay. Bio-assay guided fractionation provided detailed information regarding the compound(s) responsible for specific bioactivity.

[2] = test system: MCF7 (mammary gland adenocarcinoma); assay type: cell-based, human; details: MCF7, SDS 5% control; 0 = 100.0; in % (unit assumed)
Description: as §1, §3, §4

[3] = test system: SKOV3 (ovarian adenocarcinoma); assay type: cell-based, human; details: SKOV3, SDS 5% control; 0 = 100.0; in % (unit assumed)
Description: as §1, §3, §4

[4] = test system: THP-1 (acute monocytic leukemia); assay type: cell-based, human; details: THP-1, SDS 5% control; 0 = 100.0; in % (unit assumed)
Description: as §1, §3, §4

[5] = test system: U373 (glioblastoma-astrocytoma); assay type: cell-based, human; details: U373, SDS 5% control; 0 = 100.0; in % (unit assumed)
Description: as §1, §3, §4

Compound: CCCCCCCCCCCCOS(=O)(=O)[O-].[Na+] [SDS]
- AVG (viability, CIMA assay) (A549 (lung carcinoma)): 68.7%
- AVG (viability, CIMA assay) (PC3): 77.3%
- AVG (viability, CIMA assay) [1]: 9.4 and 11.3
- AVG (viability, CIMA assay) [2]: 44.1 and 49.9
- AVG (viability, CIMA assay) [3]: 78.9 and 56.5
- AVG (viability, CIMA assay) [4]: 20.3 and 36.2
- AVG (viability, CIMA assay) [5]: 48.4 and 58.1
